We go through 31 compounds from patent US20100119599A1 (ARCHER PHARMACEUTICALS, INC., priority 2006, published 2010).

One assay has as its system Aβ1-40. As to the kind of experiment: Measurement of Aβ1-40 in culture medium of 7W WT APP751 CHO cells by ELISA. The class given is cell-based, Chinese hamster. To be noted: for Aβ1-40 (% of control): CHO cells that overexpress APP751, zero = below the detection limit of the assay; for activity at 5 µM: Cricetulus griseus, Table 1, 5 μM test compound, CHO cells stably transfected with human APP751, culture medium, ELISA, control DMSO, 0 = no detectable amount. (In general: In an ELISA, binding on a coated surface is turned into a signal by an enzyme label.)

The subject of another assay is Aβ1-42. As to the kind of experiment: Measurement of Aβ1-42 in culture medium of 7W WT APP751 CHO cells by ELISA. It counts as cell-based, Chinese hamster. To be noted: for Aβ1-42 (% of control): CHO cells that overexpress APP751, zero = below the detection limit of the assay; for activity at 5 µM: Cricetulus griseus, Table 1, 5 μM test compound, CHO cells stably transfected with human APP751, culture medium, ELISA, control DMSO, 0 = no detectable amount, read-out: Aβ1-42 (% of control).
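Also: 5 µM test compound but RI-coded compounds at 10 µM for 24 hours.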

On to `CC1=C(C(=O)Nc2ccc(Cl)cc2)C(c2ccccc2C)C(C#N)=C(SCC(=O)Nc2cccc(C)c2)N1` (centres unmarked) [RI_31], for which the “Aβ1-40 (% of control)” value in the assay on Aβ1-40 is given as 53.9 % of control. For the same compound, the “Aβ1-42 (% of control)” value with Aβ1-42 is 73.3 % of control.
`COC(=O)C1=C(C)NC2=C(C(=O)CC(c3cccs3)C2)C1c1ccc(C(F)(F)F)cc1` (centres unmarked) [ST052493, methyl 2-methyl-5-oxo-7-(2-thienyl)-4-[4-(trifluoromethyl)phenyl]-1,4,6,7,8-pentahydroquinoline-3-carboxylate]: the activity at 5 µM in the assay with Aβ1-40 turned out to be 39.9%; with Aβ1-42, 57.1%.
Take `CC1=C(C(N)=O)C(c2ccccc2)C(C#N)=C(SCC(=O)Nc2cccc(C)c2)N1` (centres unmarked) [RI_30]: the “Aβ1-40 (% of control)” value in the assay on Aβ1-40 was 94.9 % of control. Further, the “Aβ1-42 (% of control)” value with Aβ1-42 was 48.2 % of control.
With `CC1=C(C(=O)Nc2ccc(Cl)cc2)C(c2ccsc2)C(C#N)=C(SCC(=O)Nc2cccc(Cl)c2C)N1` (centres unmarked) [RI_53], in the assay with Aβ1-40, the “Aβ1-40 (% of control)” value is reported as 56 % of control. In addition, the “Aβ1-42 (% of control)” value with Aβ1-42 is 99.2 % of control.
With `CCCCOC(=O)C1=C(C)NC2=C(C(=O)CC(C)(C)C2)C1c1ccccc1[N+](=O)[O-]` (centres unmarked) [ST215464, butyl 2,7,7-trimethyl-4-(2-nitrophenyl)-5-oxo-1,4,6,7,8-pentahydroquinoline-3-carboxylate], the activity at 5 µM in the assay with Aβ1-40 was 62.7%; with Aβ1-42 it was 90.7%.
On the same counts, the results for `CC1=C(C(=O)OCC(C)C)C(c2cc([N+](=O)[O-])ccc2Cl)C2=C(CCCC2=O)N1` (centres unmarked) [ST052351, 2-methylpropyl 4-(2-chloro-5-nitrophenyl)-2-methyl-5-oxo-1,4,6,7,8-pentahydroquinoline-3-carboxylate] are 19.3% and 20.3%.
For `CC1=C(C(=O)Nc2ccccc2)C(c2ccsc2)C(C#N)=C(SCC(=O)Nc2cccc(Cl)c2)N1` (centres unmarked) [RI_70], the “Aβ1-40 (% of control)” value with Aβ1-40 is on record as 74.1 % of control. Further, in the assay with Aβ1-42, the “Aβ1-42 (% of control)” value is 58.2 % of control.
On to `CCN(CC)c1ccc(C2C(C(=O)OCc3ccccc3)=C(C)NC3=C2C(=O)CC(C)(C)C3)cc1` (centres unmarked) [ST013049, phenylmethyl 4-[4-(diethylamino)phenyl]-2,7,7-trimethyl-5-oxo-1,4,6,7,8-pentahydroquinoline-3-carboxylate], for which the activity at 5 µM was 27.8% with Aβ1-40 and 94.1% in the assay with Aβ1-42.
As to `CCOc1cc(/C=c2\sc3n(c2=O)C(N)=C(C#N)C(c2ccc(OCC(N)=O)c(OCC)c2)C=3C#N)ccc1OCC(N)=O` (centres unmarked) [ST025037, 2-[4-(5-amino-2-{[4-(carbamoylmethoxy)-3-ethoxyphenyl]methylene}-6,8-dicyano-3-oxo(4,7-dihydro-1,3-thiazolidino[3,2-a]pyridin-7-yl))-2-ethoxyphenoxy]acetamide], the “Aβ1-40 (% of control)” value in the assay with Aβ1-40 is given as 80.02 % of control. Also, in the assay with Aβ1-42, the “Aβ1-42 (% of control)” value is 67.1 % of control.
As for `CCOC(=O)C1=C(C)NC2=C(C(=O)CCC2)C1c1ccc(OCc2ccc(C)cc2)c(OC)c1` (centres unmarked) [ST028606, ethyl 4-{3-methoxy-4-[(4-methylphenyl)methoxy]phenyl}-2-methyl-5-oxo-1,4,6,7,8-pentahydroquinoline-3-carboxylate], the figures for the activity at 5 µM with Aβ1-40 and in the assay with Aβ1-42 were 24.2% and 52%, respectively.
For `COCCOC(=O)C1=C(C)NC2=C(C(=O)CCC2)C1c1cccc(OC)c1` (centres unmarked) [ST015219, 2-methoxyethyl 4-(3-methoxyphenyl)-2-methyl-5-oxo-1,4,6,7,8-pentahydroquinoline-3-carboxylate], the activity at 5 µM in the assay on Aβ1-40 was 83.7%; in the assay on Aβ1-42, 45.8%.
On the same counts, the results for `CCn1c2ccccc2c2cc(C3C(C(=O)OC4CCCC4)=C(C)NC4=C3C(=O)CC(C)(C)C4)ccc21` (centres unmarked) [ST052173, cyclopentyl 4-(9-ethylcarbazol-3-yl)-2,7,7-trimethyl-5-oxo-1,4,6,7,8-pentahydroquinoline-3-carboxylate] are 64.7% and 32.5%.
Consider `COC(=O)C1=C(C)NC2=C(C(=O)CC(C)(C)C2)C1c1ccc(-c2ccccc2)cc1` (centres unmarked) [ST216875, methyl 2,7,7-trimethyl-5-oxo-4-(4-phenylphenyl)-1,4,6,7,8-pentahydroquinoline-3-carboxylate], for which the activity at 5 µM in the assay on Aβ1-40 is 14.2%; in the assay on Aβ1-42 it was 33%.
On the same counts, the results for `C=CCOC(=O)C1=C(C)NC2=C(C(=O)CCC2)C1c1ccc(OCCC)c(OC)c1` (centres unmarked) [ST013183, prop-2-enyl 4-(3-methoxy-4-propoxyphenyl)-2-methyl-5-oxo-1,4,6,7,8-pentahydroquinoline-3-carboxylate] are 78.7% and 66.3%.
On the same counts, the results for `CC1=C(C(=O)OCC(C)C)C(c2ccc(F)c(F)c2)C2=C(CCCC2=O)N1` (centres unmarked) [ST052345, 2-methylpropyl 4-(3,4-difluorophenyl)-2-methyl-5-oxo-1,4,6,7,8-pentanydroquinoline-3-carboxylate] are 43.6% and 7.81%.
With `CCc1cccc(NC(=O)CSC2=C(C#N)C(c3ccc(-c4ccccc4)s3)C(C(=O)Nc3ccccc3)=C(C)N2)c1` (centres unmarked) [RI_89], the “Aβ1-40 (% of control)” value in the assay on Aβ1-40 was 63.7 % of control. For the same compound, the “Aβ1-42 (% of control)” value in the assay on Aβ1-42 is recorded as 55.1 % of control.
The corresponding values for `COc1cccc(NC(=O)CSC2=C(C#N)C(c3ccccc3)C(C(=O)Nc3ccc(Cl)cc3)=C(C)N2)c1` (centres unmarked) [RI_55] are 48.1 % of control and 40.3 % of control.
On the same counts, the results for `N#CC1=C(N)n2c(s/c(=C\c3cc(Br)ccc3O)c2=O)=C(C#N)C1c1cc(Br)ccc1O` (centres unmarked) [ST025030, 5-amino-7-(5-bromo-2-hydroxyphenyl)-2-[(5-bromo-2-hydroxyphenyl)methylene]-3-oxo-4,7-dihydro-1,3-thiazolidino[3,2-a]pyridine-6,8-dicarbonitrile] are 39.29 % of control and 33.93 % of control.
On the same counts, the results for `CC1=C(C(=O)Nc2ccc(Cl)cc2)C(c2ccccc2)c2c(sc(C(=O)Nc3cccc(C)c3)c2N)N1` (centres unmarked) [RI_43] are 61.2 % of control and 75.1 % of control.
On to `CCOC(=O)C1=C(C)NC2=C(C(=O)CCC2)C1c1cccc(O)c1` (centres unmarked) [ST013148, ethyl 4-(3-hydroxyphenyl)-2-methyl-5-oxo-1,4,6,7,8-pentahydroquinoline-3-carboxylate], for which the activity at 5 µM in the assay on Aβ1-40 stood at 66.1%; with Aβ1-42 it was 49.9%.
In the case of `COc1ccc(COC(=O)C2=C(C)NC3=C(C(=O)CCC3)C2c2cccc(F)c2)cc1` (centres unmarked) [ST016959, (4-methoxyphenyl)methyl 4-(3-fluorophenyl)-2-methyl-5-oxo-1,4,6,7,8-pentahydroquinoline-3-carboxylate], the activity at 5 µM stood at 28.8% in the assay with Aβ1-40 and 57.2% with Aβ1-42.
As for `CC1=C(C(=O)Nc2ccccc2)C(c2cccs2)C(C#N)=C(SCC(=O)NCCC(C)(C)C)N1` (centres unmarked) [RI_17], the “Aβ1-40 (% of control)” value in the assay with Aβ1-40 is 18.2 % of control. For the same compound, in the assay with Aβ1-42, the “Aβ1-42 (% of control)” value was 24.1 % of control.
For the compound `COC(=O)C1=C(C)NC2=C(C(=O)CCC2)C1c1ccc(Br)cc1` (centres unmarked) [ST028547, methyl 4-(4-bromophenyl)-2-methyl-5-oxo-1,4,6,7,8-pentahydroquinoline-3-carboxylate], the activity at 5 µM in the assay on Aβ1-40 stood at 72.1%; in the assay on Aβ1-42, 45.3%.
On the same counts, the results for `CC1=C(C(=O)OCCc2ccccc2)C(c2cccc(Br)c2)C2=C(CCCC2=O)N1` (centres unmarked) [ST052221, 2-phenylethyl 4-(3-bromophenyl)-2-methyl-5-oxo-1,4,6,7,8-pentahydroquinoline-3-carboxylate] are 62.4% and 46.1%.
On the same counts, the results for `COc1ccc(C2C(C(=O)OCc3ccccc3)=C(C)NC3=C2C(=O)CCC3)cc1OC` (centres unmarked) [ST013138, phenylmethyl 4-(3,4-dimethoxyphenyl)-2-methyl-5-oxo-1,4,6,7,8-pentahydroquinoline-3-carboxylate] are 69.7% and 56.8%.
`COc1ccc(NC(=O)CSC2=C(C#N)C(c3cccs3)C(C(=O)Nc3ccccc3)=C(C)N2)cc1` (centres unmarked) [RI_58]: the “Aβ1-40 (% of control)” value in the assay with Aβ1-40 is given as 23.1 % of control. The “Aβ1-42 (% of control)” value with Aβ1-42 was 25.6 % of control.
With `CCCOc1ccccc1C1C(C(=O)OCc2ccccc2)=C(C)NC2=C1C(=O)CCC2` (centres unmarked) [ST014957, phenylmethyl 2-methyl-5-oxo-4-(2-propoxyphenyl)-1,4,6,7,8-pentahydroquinoline-3-carboxylate], the activity at 5 µM in the assay on Aβ1-40 was found to be 0%; with Aβ1-42 it was 62.8%.
With `COC(=O)C1=CN(Cc2ccc(F)cc2)C=C(C(=O)OC)C1c1ccc(OC)cc1OC` [ST038081, methyl 4-(2,4-dimethoxyphenyl)-1-[(4-fluorophenyl)methyl]-5-(methoxycarbonyl)-1,4-dihydropyridine-3-carboxylate], the “Aβ1-40 (% of control)” value in the assay with Aβ1-40 is given as 36.22 % of control. Further, in the assay on Aβ1-42, the “Aβ1-42 (% of control)” value is recorded as 92.93 % of control.
On to `Cc1c(Cl)cccc1NC(=O)CSC1=C(C#N)C(c2cccs2)C2=C(CC(C)(C)CC2=O)N1` (centres unmarked) [ST051161, N-(3-chloro-2-methylphenyl)-2-(3-cyano-7,7-dimethyl-5-oxo-4-(2-thienyl)(2-1,4,6,7,8-pentahydroquinolylthio))acetamide], for which the activity at 5 µM worked out at 13% in the assay with Aβ1-40 and 25.4% with Aβ1-42.
The corresponding values for `CC1=C(C(=O)OCCc2ccccc2)C(c2ccccc2OC(C)C)C2=C(CC(C)(C)CC2=O)N1` (centres unmarked) [ST015049, 2-phenylethyl 2,7,7-trimethyl-4-[2-(methylethoxy)phenyl]-5-oxo-1,4,6,7,8-pentahydroquinoline-3-carboxylate] are 0% and 62.4%.
As to `COC(=O)C1=CN(C2CC2)C=C(C(=O)OC)C1c1ccc(Cl)cc1` [ST038738, methyl 4-(4-chlorophenyl)-1-cyclopropyl-5-(methoxycarbonyl)-1,4-dihydropyridine-3-carboxylate], in the assay with Aβ1-40, the “Aβ1-40 (% of control)” value is listed as 94.49 % of control. In addition, the “Aβ1-42 (% of control)” value in the assay with Aβ1-42 is recorded as 52.59 % of control.
